From patent publication US8765721B2, “Composition comprising phosphatidyl serine and an antigen or allergen and the use thereof” (Vaccine Technology Limited, priority 2004, dated 2014)

Experiments:
Format in all cases: in vivo, rat
[1] = tested on: IgA; assay: Ovalbumin-specific IgA ELISA of serum of immunised rats; conditions: Day 1; 50 ug with 20 μg Ova s.c. on days 21 and 42; pooled group serum
[2] = tested on: IgE; assay: Ovalbumin-specific IgE ELISA of serum of immunised rats; conditions: Day 1; 250 ug with 20 μg Ova s.c. on days 21 and 42; pooled group serum
[3] = tested on: IgA; assay: Ovalbumin-specific IgA ELISA of serum of immunised rats; conditions: pooled group serum
Method: (§1) Rats were injected with vaccine compositions comprising the ovalbumin antigen with and without di-oleoyl phosphatidyl serine, lyso-oleoyl phosphatidyl serine or stearoyl(X1)-arachidonoyl(X2) phosphatidyl serine and the concentrations of IgE, IgA and IgG are compared.
(§2) The animals were acclimatised for a period of 5 days prior to dosing. During the acclimatisation period animals were observed twice daily during the working week and once on each day during the weekend to evaluate the health status of the animals. Rats were then allocated to the following dose groups using computer-generated random order numbers.
(§3) On day 0, 20 μg of ovalbumin (OA) in phosphate buffered saline (PBS) with alhydrogel (AHG) adjuvant in a final volume of 0.5 mL was administered.
(§4) On days 21 and 42, 20 μg of ovalbumin (OA) in phosphate buffered saline (PBS) with the relevant test compound in a final volume of 0.5 ml was administered.
(§5) In each case, 0.5 mL of inoculum was injected subcutaneously into the scruff of the neck.
On Day 0 a pre-inoculation blood sample was taken. A blood sample was also taken from each animal on Days 15, 22, 29, 36, 43, 50, 57 and 64.
(§6) Serum was prepared by centrifugation of the blood sample at 2,500 rpm for 10 minutes and frozen at −20° C. The samples were then analysed by ELISA to establish the concentration of IgE, IgA and IgG1, IgG2a and IgG2b.
(§7) The purpose of an ELISA is to determine whether a particular protein is present in a sample and then enables quantification of how much is present. By coating the bottom of wells with ovalbumin (OVA) it is possible to bind anti-OVA specific antibodies. To detect only anti-OVA IgA antibodies anti-rat IgA conjugated to HRP was used as a secondary antibody. Quantification of specific antibodies in the rat sera samples was performed using antibody titrations. The data was reported as endpoint titers. Endpoint titers are defined as the last serum dilution giving an optical density value equal to twice the background optical density for the ELISA plate (buffer).

[4] = tested on: IgE; assay: Ovalbumin-specific IgE ELISA of serum of immunised rats; conditions: pooled group serum
Method: as §1, §2, §3, §4, §5
(§8) […] A blood sample was also taken from each animal on Days 15, 22, 29, 36, 43, 50, 57 and 64.
as §6, §7

[5] = tested on: IgG2b; assay: Ovalbumin-specific IgG2b ELISA of serum of immunised rats; conditions: pooled group serum
Method: as §1, §2, §3, §4, §5, §8, §6, §7

[6] = tested on: IgG1; assay: Ovalbumin-specific IgG1 ELISA of serum of immunised rats; conditions: pooled group serum
Method: as §1, §2, §3, §4
(§9) In each case, 0.5 mL of inoculum was injected subcutaneously into the scruff of the neck. […]
as §6
as §7, with “To detect only anti-OVA IgA antibodies anti-rat IgA conjugated to HRP was used as a secondary antibody.” left out

[7] = tested on: IgG2a; assay: Ovalbumin-specific IgG2a ELISA of serum of immunised rats; conditions: pooled group serum
Method: as §1, §2, §3, §4, §9, §6, §7

[8] = Day 1, 250 ug with 20 μg Ova s.c. on days 21 and 42
[9] = Day 15, 50 ug with 20 μg Ova s.c. on days 21 and 42
[10] = Day 15, 250 ug with 20 μg Ova s.c. on days 21 and 42
[11] = Day 22, 50 ug with 20 μg Ova s.c. on days 21 and 42
[12] = Day 22, 250 ug with 20 μg Ova s.c. on days 21 and 42
[13] = Day 29, 50 ug with 20 μg Ova s.c. on days 21 and 42
[14] = Day 29, 250 ug with 20 μg Ova s.c. on days 21 and 42
[15] = Day 36, 50 ug with 20 μg Ova s.c. on days 21 and 42
[16] = Day 36, 250 ug with 20 μg Ova s.c. on days 21 and 42
[17] = Day 43, 50 ug with 20 μg Ova s.c. on days 21 and 42
[18] = Day 43, 250 ug with 20 μg Ova s.c. on days 21 and 42
[19] = Day 50, 50 ug with 20 μg Ova s.c. on days 21 and 42
[20] = Day 50, 250 ug with 20 μg Ova s.c. on days 21 and 42
[21] = Day 57, 50 ug with 20 μg Ova s.c. on days 21 and 42
[22] = Day 57, 250 ug with 20 μg Ova s.c. on days 21 and 42
[23] = Day 64, 50 ug with 20 μg Ova s.c. on days 21 and 42
[24] = Day 64, 250 ug with 20 μg Ova s.c. on days 21 and 42
[25] = Day 1, 50 ug with 20 μg Ova s.c. on days 21 and 42

Molecule: CCCCCCCC/C=C\CCCCCCCC(=O)OC[C@@H](O)COP(=O)(O)OC[C@H](N)C(=O)O [VT002, Lyso oleoyl phosphatidyl serine]
- IgA endpoint titer [1]: 0
- IgE endpoint titer [2]: 0
- IgA endpoint titer [3, 8]: 0
- IgA endpoint titer [3, 9]: 0
- IgA endpoint titer [3, 10]: 0
- IgA endpoint titer [3, 11]: 0
- IgA endpoint titer [3, 12]: 0
- IgA endpoint titer [3, 13]: 0
- IgA endpoint titer [3, 14]: 0
- IgA endpoint titer [3, 15]: 160
- IgA endpoint titer [3, 16]: 80
- IgA endpoint titer [3, 17]: 320
- IgA endpoint titer [3, 18]: 160
- IgA endpoint titer [3, 19]: 2560
- IgA endpoint titer [3, 20]: 1280
- IgA endpoint titer [3, 21]: 1280
- IgA endpoint titer [3, 22]: 1280
- IgA endpoint titer [3, 23]: 2560
- IgA endpoint titer [3, 24]: 1280
- IgE endpoint titer [4, 25]: 0
- IgE endpoint titer [4, 9]: 0
- IgE endpoint titer [4, 10]: 0
- IgE endpoint titer [4, 11]: 0
- IgE endpoint titer [4, 12]: 0
- IgE endpoint titer [4, 13]: 80
- IgE endpoint titer [4, 14]: 0
- IgE endpoint titer [4, 15]: 40
- IgE endpoint titer [4, 16]: 20
- IgE endpoint titer [4, 17]: 80
- IgE endpoint titer [4, 18]: 40
- IgE endpoint titer [4, 19]: 1280
- IgE endpoint titer [4, 20]: 640
- IgE endpoint titer [4, 21]: 320
- IgE endpoint titer [4, 22]: 160
- IgE endpoint titer [4, 23]: 160
- IgE endpoint titer [4, 24]: 160
- IgG2b endpoint titer [5, 25]: 0
- IgG2b endpoint titer [5, 8]: 0
- IgG2b endpoint titer [5, 9]: 0
- IgG2b endpoint titer [5, 10]: 40
- IgG2b endpoint titer [5, 11]: 0
- IgG2b endpoint titer [5, 12]: 80
- IgG2b endpoint titer [5, 13]: 160
- IgG2b endpoint titer [5, 14]: 40
- IgG2b endpoint titer [5, 15]: 320
- IgG2b endpoint titer [5, 16]: 320
- IgG2b endpoint titer [5, 17]: 640
- IgG2b endpoint titer [5, 18]: 640
- IgG2b endpoint titer [5, 19]: 640
- IgG2b endpoint titer [5, 20]: 5120
- IgG2b endpoint titer [5, 21]: 2560
- IgG2b endpoint titer [5, 22]: 5120
- IgG2b endpoint titer [5, 23]: 1280
- IgG2b endpoint titer [5, 24]: 2560
- IgG1 endpoint titer [6, 25]: 0
- IgG1 endpoint titer [6, 8]: 0
- IgG1 endpoint titer [6, 9]: 320
- IgG1 endpoint titer [6, 10]: 640
- IgG1 endpoint titer [6, 11]: 2560
- IgG1 endpoint titer [6, 12]: 2560
- IgG1 endpoint titer [6, 13]: 10240
- IgG1 endpoint titer [6, 14]: 5120
- IgG1 endpoint titer [6, 15]: 20480
- IgG1 endpoint titer [6, 16]: 20480
- IgG1 endpoint titer [6, 17]: 20480
- IgG1 endpoint titer [6, 18]: 10240
- IgG1 endpoint titer [6, 19]: 40960
- IgG1 endpoint titer [6, 20]: 20480
- IgG1 endpoint titer [6, 21]: 40960
- IgG1 endpoint titer [6, 22]: 40960
- IgG1 endpoint titer [6, 23]: 40960
- IgG1 endpoint titer [6, 24]: 40960
- IgG2a endpoint titer [7, 25]: 0
- IgG2a endpoint titer [7, 8]: 0
- IgG2a endpoint titer [7, 9]: 40
- IgG2a endpoint titer [7, 10]: 80
- IgG2a endpoint titer [7, 11]: 1280
- IgG2a endpoint titer [7, 12]: 640
- IgG2a endpoint titer [7, 13]: 2560
- IgG2a endpoint titer [7, 14]: 1280
- IgG2a endpoint titer [7, 15]: 5120
- IgG2a endpoint titer [7, 16]: 2560
- IgG2a endpoint titer [7, 17]: 5120
- IgG2a endpoint titer [7, 18]: 2560
- IgG2a endpoint titer [7, 19]: 20480
- IgG2a endpoint titer [7, 20]: 20480
- IgG2a endpoint titer [7, 21]: 20480
- IgG2a endpoint titer [7, 22]: 20480
- IgG2a endpoint titer [7, 23]: 20480
- IgG2a endpoint titer [7, 24]: 20480

B1: ovalbumin (protein, UniProt P01012 2-386, looked up)
Ovalbumin: GSIGAASMEFCFDVFKELKVHHANENIFYCPIAIMSALAMVYLGAKDSTRTQINKVVRFDKLPGFGDSIEAQCGTSVNVHSSLRDILNQITKPNDVYSFSLASRLYAEERYPILPEYLQCVKELYRGGLEPINFQTAADQARELINSWVESQTNGIIRNVLQPSSVDSQTAMVLVNAIVFKGLWEKAFKDEDTQAMPFRVTEQESKPVQMMYQIGLFRVASMASEKMKILELPFASGTMSMLVLLPDEVSGLEQLESIINFEKLTEWTSSNVMEERKIKVYLPRMKMEEKYNLTSVLMAMGITDVFSSSANLSGISSAESLKISQAVHAAHAEINEAGREVVGSAEAGVDAASVSEEFRADHPFLFCIKHIATNAVLFFGRCVSP
notes: Group 2: ovalbumin antigen, 20 μg on days 21 and 42 without phosphatidyl serine, after Ova + Alh on day 0
- IgA endpoint titer ([3]; Day 1, no phosphatidyl serine): 0
- IgA endpoint titer ([3]; Day 15, no phosphatidyl serine): 0
- IgA endpoint titer ([3]; Day 22, no phosphatidyl serine): 0
- IgA endpoint titer ([3]; Day 29, no phosphatidyl serine): 80
- IgA endpoint titer ([3]; Day 36, no phosphatidyl serine): 320
- IgA endpoint titer ([3]; Day 43, no phosphatidyl serine): 320
- IgA endpoint titer ([3]; Day 50, no phosphatidyl serine): 640
- IgA endpoint titer ([3]; Day 57, no phosphatidyl serine): 1280
- IgA endpoint titer ([3]; Day 64, no phosphatidyl serine): 640
- IgE endpoint titer ([4]; Day 1, no phosphatidyl serine): 0
- IgE endpoint titer ([4]; Day 15, no phosphatidyl serine): 0
- IgE endpoint titer ([4]; Day 22, no phosphatidyl serine): 0
- IgE endpoint titer ([4]; Day 29, no phosphatidyl serine): 0
- IgE endpoint titer ([4]; Day 36, no phosphatidyl serine): 20
- IgE endpoint titer ([4]; Day 43, no phosphatidyl serine): 20
- IgE endpoint titer ([4]; Day 50, no phosphatidyl serine): 640
- IgE endpoint titer ([4]; Day 57, no phosphatidyl serine): 80
- IgE endpoint titer ([4]; Day 64, no phosphatidyl serine): 40
- IgG2b endpoint titer ([5]; Day 1, no phosphatidyl serine): 0
- IgG2b endpoint titer ([5]; Day 15, no phosphatidyl serine): 1280
- IgG2b endpoint titer ([5]; Day 22, no phosphatidyl serine): 640
- IgG2b endpoint titer ([5]; Day 29, no phosphatidyl serine): 640
- IgG2b endpoint titer ([5]; Day 36, no phosphatidyl serine): 640
- IgG2b endpoint titer ([5]; Day 43, no phosphatidyl serine): 640
- IgG2b endpoint titer ([5]; Day 50, no phosphatidyl serine): 640
- IgG2b endpoint titer ([5]; Day 57, no phosphatidyl serine): 5120
- IgG2b endpoint titer ([5]; Day 64, no phosphatidyl serine): 5120
- IgG1 endpoint titer ([6]; Day 1, no phosphatidyl serine): 0
- IgG1 endpoint titer ([6]; Day 15, no phosphatidyl serine): 320
- IgG1 endpoint titer ([6]; Day 22, no phosphatidyl serine): 2560
- IgG1 endpoint titer ([6]; Day 29, no phosphatidyl serine): 10240
- IgG1 endpoint titer ([6]; Day 36, no phosphatidyl serine): 20480
- IgG1 endpoint titer ([6]; Day 43, no phosphatidyl serine): 10240
- IgG1 endpoint titer ([6]; Day 50, no phosphatidyl serine): 10240
- IgG1 endpoint titer ([6]; Day 57, no phosphatidyl serine): 10240
- IgG1 endpoint titer ([6]; Day 64, no phosphatidyl serine): 20480
- IgG2a endpoint titer ([7]; Day 1, no phosphatidyl serine): 0
- IgG2a endpoint titer ([7]; Day 15, no phosphatidyl serine): 640
- IgG2a endpoint titer ([7]; Day 22, no phosphatidyl serine): 1280
- IgG2a endpoint titer ([7]; Day 29, no phosphatidyl serine): 1280
- IgG2a endpoint titer ([7]; Day 36, no phosphatidyl serine): 2560
- IgG2a endpoint titer ([7]; Day 43, no phosphatidyl serine): 5120
- IgG2a endpoint titer ([7]; Day 50, no phosphatidyl serine): 20480
- IgG2a endpoint titer ([7]; Day 57, no phosphatidyl serine): 20480
- IgG2a endpoint titer ([7]; Day 64, no phosphatidyl serine): 10240
